How the values were obtained:
Type in all cases: cell-based
Caspase-1 = molecular target: T1, Caspase-1 (Homo sapiens, UniProt P29466); assay: Inhibition of IL-1 beta converting enzyme (ICE) in human blood monocytes expressed as Ki
T1 sequence (P29466 whole entry): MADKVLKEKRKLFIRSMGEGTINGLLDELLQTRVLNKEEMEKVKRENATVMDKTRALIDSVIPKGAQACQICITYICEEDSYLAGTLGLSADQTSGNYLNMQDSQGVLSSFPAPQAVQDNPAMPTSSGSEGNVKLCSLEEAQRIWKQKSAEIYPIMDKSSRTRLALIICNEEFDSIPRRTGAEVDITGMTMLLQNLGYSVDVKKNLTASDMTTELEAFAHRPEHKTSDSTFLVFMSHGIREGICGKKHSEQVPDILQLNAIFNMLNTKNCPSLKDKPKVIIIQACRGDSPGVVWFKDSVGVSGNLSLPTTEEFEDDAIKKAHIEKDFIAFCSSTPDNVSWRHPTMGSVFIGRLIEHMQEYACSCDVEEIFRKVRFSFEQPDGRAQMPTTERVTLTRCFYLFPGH

Caspase-1 (Homo sapiens) [1] = molecular target: T2, Caspase-1 (Homo sapiens) (UniProt P29466); assay: Inhibition of IL-1 beta converting enzyme (ICE) in human blood monocytes expressed as Kon
T2 sequence (whole entry): T1 sequence (P29466 whole entry)

Caspase-1 (Homo sapiens) [2] = molecular target: T2, Caspase-1 (Homo sapiens); assay: Compound was tested for inhibition of IL-1 beta converting enzyme (ICE) in human blood monocytes expressed as Ki

Compound | Ki (Caspase-1) [µM] | k on (Caspase-1 (Homo sapiens) [1]) [M⁻¹ s⁻¹] | k on (Caspase-1 (Homo sapiens) [2]) [M⁻¹ s⁻¹]
C=CCOC(=O)NC(CC(=O)O)C(=O)COc1ccccc1C(N)=O (centres undefined) | 3.8 |  | 
C=CCOC(=O)NC(CC(=O)O)C(=O)COc1c(C(N)=O)ccc2ccccc12 (centres undefined) | > 22 |  | 
C=CCOC(=O)N[C@@H](CC(=O)O)C(=O)CCc1cc2ccccc2cc1-c1ncc[nH]1 | > 100 |  | 
C=CCOC(=O)N[C@@H](CC(=O)O)C(=O)COc1cc2ccccc2cc1-c1ncc[nH]1 | 0.09 | 12000 | 
C=CCOC(=O)NC(CC(=O)O)C(=O)COc1cc2ccccc2cc1C#N (centres undefined) |  | 4500 | 
C=CCOC(=O)NC(CC(=O)O)C(=O)COc1ccccc1 (centres undefined) | 2.7 |  | 

More lines, now with the values ahead:

Ki (Caspase-1) [µM] | k on (Caspase-1 (Homo sapiens) [1]) [M⁻¹ s⁻¹] | k on (Caspase-1 (Homo sapiens) [2]) [M⁻¹ s⁻¹] | Compound
> 18 |  |  | C=CCOC(=O)NC(CC(=O)O)C(=O)COc1ccc2ccccc2c1C(N)=O (centres undefined)
> 28 |  |  | C=CCOC(=O)NC(CC(=O)O)C(=O)COc1cc2ccccc2cc1C(=O)N(C)C (centres undefined)
4.9 | 1.1 |  | CC(C)[C@H](NC(=O)OCc1ccccc1)C(=O)N[C@@H](C)C(=O)N[C@@H](CC(=O)O)C(=O)COc1ccccc1
4 |  |  | C=CCOC(=O)NC(CC(=O)O)C(=O)COc1ccc2ccccc2c1 (centres undefined)
2 |  |  | C=CCOC(=O)NC(CC(=O)O)C(=O)COc1cc(-c2ccccc2)ccc1C(N)=O (centres undefined)
0.32 | 5600 |  | C=CCOC(=O)NC(CC(=O)O)C(=O)COc1cc2ccccc2cc1C(N)=O (centres undefined)
 |  | 3400 | C=CCOC(=O)NC(CC(=O)O)C(=O)COc1ccc(-c2ccccc2)cc1C(N)=O (centres undefined)
 | 4100 |  | C=CCOC(=O)NC(CC(=O)O)C(=O)COc1cc2ccccc2cc1C(=O)Nc1ccccc1 (centres undefined)
1.7 | 430000 |  | CC(C)[C@H](NC(=O)OCc1ccccc1)C(=O)N[C@@H](C)C(=O)N[C@@H](CC(=O)O)C(=O)COc1cc2ccccc2cc1C(N)=O
